In assay [1] the test system is Porcine smooth muscle cells (PSMC). Put plainly: Mitogenic assay on PSMC (cell count). The note with it: for inhibition of PSMC proliferation mediated by FBS: 17βE 10^−7M, 72 h. It counts as cell-based. As for the experimental part: (§1) Confluent PAEC and PSMC were rinsed with DMEM and trypsinized. Cells were resuspended in 10 ml of DMEM, 5% FBS, and antibiotics, and a cell count was obtained with a Coulter Counter Z1 (Coulter Electronics, Luton, UK). PAEC and PSMC were seeded at 1×10^4 cells/well of 24-well tissue culture plates (Becton-Dickinson, Rutherford, N.J., U.S.A.) stimulated for 24 h in DMEM, 5% FBS, and antibiotics, and starved for 48 h in DMEM, 0.1% FBS, and antibiotics. […] After trypsinization, cell number was determined by using a Coulter counter.
(§2) Confluent PAEC and PSMC were rinsed with DMEM and trypsinized. Cells were resuspended in 10 mL of DMEM, 5% FBS, and antibiotics, and a cell count was obtained. PAEC and PSMC were initially seeded at 1×10^4cells/well of 24-well tissue culture plates stimulated for 24 hours in DMEM, 5% FBS, and antibiotics with or without antisense oligomers (10^−6 mol/L), and starved for 48 hours in DMEM, 0.1% FBS, and antibiotics with or without antisense oligomers (10^−6 mol/L daily) for G0 synchronization. Initial cell number for growth was determined using a Coulter counter. The cells were stimulated for 72 hours in DMEM, 1% FBS, antibiotics with or without antisense oligomers (10^−6 mol/L daily) and with or without of 17βE (Sigma). After trypsinization, cell number was determined by using a Coulter counter.

Assay [2] deals with p38 MAPK. As to the kind of experiment: Western blot of p38 MAPK phosphorylation in PAEC. It counts as cell-based, porcine. The conditions noted are these: for inhibition of p38 MAPK phosphorylation induced by a 30 minutes treatment with 17βE: antagonist 10^−7M 5 min prior to 17βE 10^−8M. As for the experimental part:
(§3) Confluent PAEC and PSMC were starved for 7 hours in DMEM and antibiotics. Culture medium was removed, and cells were rinsed twice with ice-cold DMEM. PSMC were incubated on ice in DMEM with or without 17βE (10^−8M) for 30 min, incubated at 37° C. for 5, 10, 15 and 30 min, then brought back on ice. Cell were then rinsed with cold DMEM, incubated on ice in DMEM, bovine serum albumin (1 mg/ml), PDGF-BB (10 ng/ml) for 30 min, incubated at 37° C. for 5 min, and then brought back on ice. PAEC were incubated on ice in DMEM with or without 17βE (10^−7M) for 30 min, then incubated at 37° C. for 5, 10, 15 and 30 min and brought back on ice. […] Total proteins were prepared by the addition of 500 μl of lysis buffer containing phenylmethylsulfonyl fluoride 1 mM, leupeptin 10 μg/ml, aprotinin 30 μg/ml, and NaVO3 1 mM (Sigma). Plates were incubated at 4° C. for 30 min and scraped, and the protein concentration was determined with a Bio-Rad protein kit (Bio-Rad, Hercules, Calif.). Same protein quantity for each cell type and condition were dissolved in Laemmli's buffer, boiled for 5 min in reducing conditions, separated by a 10% gradient SDS-PAGE (Protean II kit; Bio-Rad), and transblotted onto a 0.45-μm polyvinylidene difluoride membranes (Millipore Corp., Bedford, Mass.). The membranes were blocked in 5% Blotto-TTBS (5% nonfat dry milk; Bio-Rad), 0.05% Tween 20, 0.15 M NaCl, 25 mM Tris-HCl, pH 7.5) for 1 h at room temperature with gentle agitation and incubated overnight at 4° C. in 0.5% Blotto-TTBS with the addition of an anti-phospho p42/44 MAPK or an anti-phospho p38 MAPK rabbit polyclonal antiserums (α-pp42/44; dilution of 1:10 000, and α-pp38; dilution 1:5000, New England BioLabs, Beverly, Mass.). Membranes were washed with TTBS, and incubated at room temperature with an anti-rabbit IgG antibody coupled to horseradish peroxidase (dilution 1:10 000–1:20 000, Santa Cruz Biotechnology, Santa Cruz, Calif.) in 0.5% Blotto-TTBS for 30 min. […] Kaleidoscope molecular weight and SDS-plyacrylamide gel electrophoresis broad range marker proteins (Bio-Rad) were used as standards for SDS-plyacrylamide gel electrophoresis. Digital image densitometry (PDI Bioscience, Aurora, ON) was performed on x-ray film to determine relative percentages of p42/44 and p38 MAPK phosphorylation.
(§4) Confluent PAEC and PSMC were preteated with or without antisense sequences as described above for Western Blot analysis. Cells were rinsed twice with ice-cold DMEM. PSMC and PAEC were stimulated with or without 17βE (10^−8 mol/L) as previously described (Geraldes P). Briefly, PSMC were incubated on ice in DMEM with or without 17βE (10^−8 mol/L) for 30 minutes, incubated at 37° C. for 30 minutes, then brought back on ice. Cells were then rinsed with cold DMEM, incubated on ice in DMEM, bovine serum albumin (1 mg/mL), PDGF-BB (10 ng/mL) for 30 minutes, incubated at 37° C. for 5 and 30 minutes, and then brought back on ice. PAEC were incubated on ice in DMEM with or without 17βE (10^−8 mol/L) for 30 minutes, then incubated at 37° C. for 5 and 30 minutes and brought back on ice. Total proteins were prepared-by the addition of 500 μL of lysis buffer, incubated at 4° C. for 30 minutes and scraped to collect the proteins. Same quantity of protein was separated by a 10% gradient SDS-PAGE (Protean II kit; Bio-Rad), and transblotted onto a 0.45-μm polyvinylidene difluoride membranes (Millipore Corp.). […]

Assay [3] concerns p38 MAPK. As to the kind of experiment: Western blot of p38 MAPK phosphorylation in PSMC. It counts as cell-based, porcine. The conditions noted are these: for reversal of the effect of 17βE on p38 MAPK induced by PDGF-BB: antagonist 10^−7M. The procedure: as §3
as §4, with “Corp.). The membranes were blocked for 1 hour at room temperature with gentle agitation and incubated overnight at 4° C. in 0.5% Blotto-TTBS with the addition of an antiphospho p42/44 MAPK or an antiphospho p38 MAPK rabbit polyclonal antiserums (α-pp42/44; dilution of 1:10000, and α-pp38; dilution 1:5 000, New England BioLabs, Beverly, Mass.). Membranes were washed with TTBS, and incubated at room temperature with an anti-rabbit IgG antibody coupled to horseradish peroxidase (dilution 1:10 000–1:20 000, Santa Cruz Biotechnology) in 0.5% Blotto-TTBS for 30 minutes.” for “Corp.).”

Assay [4] concerns Porcine aortic endothelial cells (PAEC). As to the kind of experiment: Mitogenic assay on PAEC (cell count). It is filed as cell-based. The conditions noted are these: for inhibition of the 17βE mitogenic activity in PAEC: antagonist 10^−7M pretreatment. The procedure: as §1, §2
In another assay the test system is p42/44 MAPK. Put plainly: Western blot of p42/44 MAPK phosphorylation in PSMC. It is filed as cell-based, porcine. The procedure:
as §3
Confluent PAEC and PSMC were preteated with or without antisense sequences as described above for Western Blot analysis. Cells were rinsed twice with ice-cold DMEM. PSMC and PAEC were stimulated with or without 17βE (10^−8 mol/L) as previously described (Geraldes P). […] Same quantity of protein was separated by a 10% gradient SDS-PAGE (Protean II kit; Bio-Rad), and transblotted onto a 0.45-μm polyvinylidene difluoride membranes (Millipore Corp.). […]

The mark [5] stands for this setting: 17βE 10^−8 mol/L 30 minutes, Example 2.
Where [6] appears, read: substance alone, data not shown.

The values that follow come from patent US7235534B2, “Antisense strategy to modulate estrogen receptor response (ER α and/or ER β )” (Institut de Cardiologie de Montreal, priority 2001, dated 2007).

Regarding `CC/C(=C(\c1ccccc1)c1ccc(OCCN(C)C)cc1)c1ccccc1` [Tam, Tamoxifen], the “reversal of the anti-mitogenic activity of 17βE on PSMC” value (“reversal … on PSMC” for short) in assay [1] (Tam 10^−7M, 17βE 10^−8M, FBS 1%) stood at 75%. Moreover, in the assay with p38 MAPK [2], the “inhibition of p38 MAPK phosphorylation induced by a 30 minutes treatment with 17βE” value (“inhibition … with 17βE” for short) was 84%. In addition, the “reversal of the effect of 17βE on p38 MAPK induced by PDGF-BB” value (shortened to “reversal of the effect of 17βE”) in the assay with p38 MAPK [3] (PDGF-BB 30 min) was determined as 51%. Further, the “inhibition of the 17βE mitogenic activity in PAEC” value (from here on “inhibition … in PAEC”) in assay [4] (17βE 10^−8M) is “inhibited completely”.
Take `CC/C(=C(\c1ccc(O)cc1)c1ccc(OCCN(C)C)cc1)c1ccccc1` [4-OHT, 4-OH-Tamoxifen]: the “reversal … on PSMC” value in assay [1] (4-OHT 10^−8M and 10^−7M, 17βE 10^−8M, FBS 1%) is 81%. The “inhibition … with 17βE” value with p38 MAPK [2] came out at 81%. Further, the “reversal of the effect of 17βE” value in the assay on p38 MAPK [3] (PDGF-BB 30 min) was 53%. Also, the “inhibition … in PAEC” value in assay [4] (17βE 10^−8M) is “inhibited completely”.
With `O=C(c1ccc(OCN2CCCCC2)cc1)c1c(-c2ccc(O)cc2)sc2cc(O)ccc12` [Ral, Raloxifen], the “reversal … on PSMC” value in assay [1] (Rai 10^−1M as printed, 17βE 10^−8M, FBS 1%) came to 100%. Also, the “inhibition … with 17βE” value with p38 MAPK [2] was 98%. Also, in the assay on p38 MAPK [3] (PDGF-BB 30 min), the “reversal of the effect of 17βE” value was 32%. Further, in assay [4] (17βE 10^−8M), the “inhibition … in PAEC” value is “inhibited completely”.
Consider `C[C@]12CC[C@@H]3c4ccc(O)cc4CC[C@H]3[C@@H]1CC[C@@H]2O` [17βE, 17-beta-estradiol], for which the figures for the “inhibition of PSMC proliferation mediated by FBS” value in assay [1] (FBS 1%) and in assay [1] (FBS 5%) were 88% and 90%, respectively. For the same compound, in assay [1] (17βE 10^−8M, Example 1), the “inhibition of FBS 1% mitogenic activity on PSMC” value is “inhibited completely”. The “prevention of PSMC proliferation mediated by FBS 1%” value in assay [1] (17βE 10^−8 mol/L, Example 2) was 95%. For the same compound, the “time of maximum stimulation of p38 MAPK phosphorylation” value in the assay with p38 MAPK [2] (17βE 10^−8M) is 30 min. Further, in the assay with p38 MAPK [2] (17βE 10^−8 mol/L, 30 minutes, Example 2), the “increase of p38 MAPK phosphorylation” value was 254%. The “reversal of PDGF-BB-increased p38 MAPK phosphorylation” value with p38 MAPK [3] (setting [5]) is reported as “reversed”. Further, the “inhibition of PDGF-BB-mediated p38 MAPK phosphorylation” value with p38 MAPK [3] (17βE (10^−8M) pretreatment 30 minutes, PDGF-BB 30 min) was found to be 85%. In addition, the “reduction of PDGF-BB induced phosphorylation of p38 MAPK” value with p38 MAPK [3] (17βE for 30 min) is recorded as 85%. Besides, the “change in basal phosphorylation of p38 MAPK” value in the assay on p38 MAPK [3] (setting [6]) is “did not observe any change”. The “time of maximum inhibition of PDGF-BB-induced p42/44 MAPK phosphorylation” value in the assay on p42/44 MAPK (17βE 10^−8M pretreatment, PDGF-BB 5 minutes) stood at 30 min. In addition, in the assay on p42/44 MAPK (setting [5]), the “reversal of PDGF-BB-increased p42/44 MAPK phosphorylation” value is “reversed”. The “reduction of PDGF-BB induced phosphorylation of p42/44 MAPK” value with p42/44 MAPK (17βE for 30 min) was found to be 100%. The “change in basal phosphorylation of p42/44 MAPK” value with p42/44 MAPK (setting [6]) is “did not observe any change”. Further, the “induction of PAEC proliferation over FBS 1% treatment” value is listed as 37% in assay [4] (17βE 10^−8M, 72 h, Example 1) and 123% in assay [4] (17βE 10^−8 mol/L, Example 2). The “concentration of maximum induction of PAEC proliferation” value in assay [4] (17βE 10^−10 to 10^−7M, DMEM 1% FBS, data not shown) is 10^−8 M.
